How the values were obtained:
[1] = Study I (DW1809-102): pharmacokinetic analysis of plasma pelubiprofen (LC-MS/MS) after single oral dose; settings: for Tmax: N = 35, median (minimum–maximum)
Experimental: (§1) In this study, the two independent clinical trials (Study I and II) were conducted using an identical randomized, open-label, oral, single-dose, fasted, two-sequence, four-period, crossover design. Due to the known pharmacokinetic characteristics of pelubiprofen with its large intra-subject variability, the replicated design was chosen to calculate the true intra-coefficient of variation in both studies. Study I tested 25 mg of pelubiprofen tromethamine (36.73 mg of pelubiprofen tromethamine salt; 25 mg of pelubiprofen, Daewon Pharmaceutical Co., Ltd., Seoul, Republic of Korea) against 30 mg of pelubiprofen (30.0 mg of pelubiprofen, Daewon Pharmaceutical Co., Ltd., Seoul, Republic of Korea) as the reference. Study II tested 30 mg of pelubiprofen tromethamine (44.07 mg of pelubiprofen tromethamine salt; 30 mg of pelubiprofen, Daewon Pharmaceutical Co., Ltd., Seoul, Republic of Korea) against 30 mg of pelubiprofen (30.0 mg of pelubiprofen, Daewon Pharmaceutical Co., Ltd., Seoul, Republic of Korea) as the reference. The target number of subjects in both Study I and II was set to N = 36 (N = 18 for each sequence group) (Figure 1, Table 1).
(§2) The subject screening in both Study I and Study II was performed in the four weeks ([…]) prior to the first administration (Day 1). […] In addition, the screened subjects fasted for at least 10 h, excluding drinking water, from approximately 10 p.m. until administration of the investigational drug. The randomization in both Study I and II led the subjects to receive oral administration of a single test or reference tablet with approximately 150 mL of water at each time point from approximately 8 a.m. at approximately 2 min intervals according to their numbers. The subjects in both Study I and II were prohibited from drinking water for an hour before and after the administration, except during drug administration. The post-administration blood sampling and tests were performed as scheduled. All subjects were provided with identical meals approximately 4 h after blood sampling. The subjects in both Study I and II received the blood sampling and tests for the pharmacokinetic (PK) evaluation approximately 8 h after administration. Then, they were discharged following the completion of the first period of the study.
(§3) To analyze the PK characteristics in both Study I and II, approximately 5 mL of blood was sampled before administration (0 h) and at the following time points after administration; 0.083 h (5 min), 0.167 h (10 min), 0.33 h (20 min), and 0.5, 0.75, 1, 1.5, 2, 2.5, 3, 3.5, 4, 6, and 8 h. Therefore, for each subject, the blood sampling was performed 15 times in each period, resulting in a total of 60 times. All four periods proceeded on the same schedule as the first period in both Study I and II. The wash-out period between each consecutive period was set to a minimum of four days. The subjects in both Study I and II, after completing all four periods, chose a day from Day 5 to Day 7 of the final administration in the four period for visiting the center to undergo post study visit.
(§4) The validation of the quantitative analysis of plasma pelubiprofen in this study was performed in accordance with the following guidelines: the Validation Protocol for Pelubiprofen Quantification, the domestic Standard Operating Procedure (SOP) for Bioanalyses, the Guideline of Bioanalytical Method Validation (MFDS, December 2013), and Bioanalytical Method Validation Guidance for Industry (USA FDA, 2018). The plasma pelubiprofen was pretreated using protein precipitation in a dark room at room temperature (15–25 °C) and under shielded light for the subsequent liquid chromatograph tandem mass spectrometry (LC-MS/MS) analysis. The tested items in the validation included the intra-batch and inter-batch accuracy, precision, selectivity, linearity, and stability.

[2] = Study II (DW1809-103): pharmacokinetic analysis of plasma pelubiprofen (LC-MS/MS) after single oral dose
Experimental: as §1, §2, §3, §4

[3] = Study II safety and tolerability evaluation (adverse events); type: in vivo, human; settings: treatment of test (30 mg pelubiprofen tromethamine), 36 subjects evaluated, mild, 'not related'
Experimental: In both Study I and II, the safety evaluation was performed on subjects administered with the investigational drug at least once. Any clinically significant findings in the interview, physical examination, vital signs, 12-lead electrocardiogram (ECG), the clinical laboratory test, etc., during the study period were collected as adverse events, which were subsequently evaluated for the incidence of serious adverse events, severity, causal relationship, etc. All relevant data were collected through monitoring by the investigator and voluntary reporting by the subjects. To collect additional data, interview and physical examination were performed where necessary. The investigator carried out the follow-up monitoring of the subjects with adverse events until the symptoms subsided and abnormal test values returned to a healthy baseline or until a satisfactory explanation for the observed change could be provided.

[4] = design: method as in PMID 34070062; settings: non-clinical studies; cited from earlier work
[5] = design: method as in earlier work; settings: cited from earlier work
[6] = Study I, healthy subjects, single oral 25 mg pelubiprofen tromethamine, fasted, N = 35, mean ± SD
[7] = Study II, 30 mg pelubiprofen tromethamine vs. 30 mg pelubiprofen
[8] = Study II, healthy subjects, single oral 30 mg pelubiprofen tromethamine, fasted, N = 33, mean ± SD

CC(C(=O)O)c1ccc(/C=C2\CCCCC2=O)cc1 (stereo not drawn) [Pelubiprofen Tromethamine, pelubiprofen tromethamine]
time after oral administration at which plasma concentration of pelubiprofen returned to baseline ([1]; Study I, 25 mg pelubiprofen tromethamine dose group): approximately 4 h | bioequivalence evaluation of Cmax and AUC0-t vs. 30 mg pelubiprofen ([1]; Study I, 25 mg pelubiprofen tromethamine, criteria 90% CI log 0.70–log 1.43 (Cmax), log 0.8–log 1.25 (AUC0-t)): satisfied the bioequivalence study criteria | AUC0-inf [1, 6]: 372.12 ± 92.16 ng·h/mL | AUC0-t [1, 6]: 370.76 ± 91.86 ng·h/mL | CL/F [1, 6]: 71.78 ± 19.79 L/h | Cmax [1, 6]: 645.80 ± 237.73 ng/mL | Vd/F [1, 6]: 87.43 ± 40.63 L | t1/2 [1, 6]: 52.2 ± 23.4 min | Tmax ([1]; Study I, healthy subjects, single oral 25 mg pelubiprofen tromethamine, fasted): 0.33 (0.17–1.50) h | Tmax ([1]; Study I, healthy subjects, single oral 25 mg pelubiprofen tromethamine, fasted, listed as pelubiprofen tromethamine): approximately 0.33 h | increase of AUC0-t compared to the reference [2, 7]: 24% | increase of Cmax compared to the reference [2, 7]: 29% | AUC0-inf [2, 8]: 447.75 ± 123.40 ng·h/mL | AUC0-t [2, 8]: 446.44 ± 123.33 ng·h/mL | CL/F [2, 8]: 72.08 ± 19.97 L/h | Cmax [2, 8]: 770.01 ± 347.86 ng/mL | Vd/F [2, 8]: 94.56 ± 52.40 L | t1/2 [2, 8]: 57 ± 33.6 min | Tmax ([2]; Study II, healthy subjects, single oral 30 mg pelubiprofen tromethamine, fasted, N = 33, median (minimum–maximum)): 0.33 (0.17–2.50) h | adverse events [3]: one case of adverse events | solubility and absorption compared to pelubiprofen [4]: enhanced solubility and absorption

CC(C(=O)O)c1ccc(/C=C2\CCCCC2=O)cc1 (stereo not drawn) [Pelubiprofen, 2-[4-(oxocyclohexylidenemethyl)-phenyl] propionic acid]
CL/F ([1]; Study I, healthy subjects, single oral 30 mg pelubiprofen (reference), fasted, N = 35, mean ± SD): 92.12 ± 28.68 L/h | Tmax ([1]; Study I, healthy subjects, single oral 30 mg pelubiprofen (reference), fasted): 0.33 (0.17–3.50) h | highest within-subject variability for Cmax ([1]; Study I, reference 30 mg pelubiprofen, four-period repeated crossover): approximately 58% | AUC0-inf ([1]; human, plasma, po, 30 mg): 355 ± 103 ng·h/mL | AUC0-t ([1]; human, plasma, po, 30 mg): 352 ± 103 ng·h/mL | Cmax ([1]; human, plasma, po, 30 mg): 619 ± 368 ng/mL | Vd/F ([1]; human, plasma, po, 30 mg): 125 ± 58.8 L | half-life ([1]; human, plasma, po, 30 mg): 59.4 ± 32.4 min | Tmax ([1]; human, plasma, po, 30 mg, Tmax, Study I, healthy subjects, single oral 30 mg pelubiprofen (reference), fasted): ~19.8 min | CL/F ([2]; Study II, healthy subjects, single oral 30 mg pelubiprofen (reference), fasted, N = 33, mean ± SD): 90.55 ± 32.04 L/h | highest within-subject variability for Cmax ([2]; Study II, reference 30 mg pelubiprofen, fasting, four-period repeated crossover): approximately 58% | AUC0-inf ([2]; human, plasma, po, 30 mg): 366 ± 108 ng·h/mL | AUC0-t ([2]; human, plasma, po, 30 mg): 365 ± 108 ng·h/mL | Cmax ([2]; human, plasma, po, 30 mg): 619 ± 336 ng/mL | Tmax ([2]; human, plasma, po, 30 mg): 30 min | Vd/F ([2]; human, plasma, po, 30 mg): 119 ± 94.1 L | half-life ([2]; human, plasma, po, 30 mg): 55.8 ± 41.4 min | protein binding rate [5]: high protein binding rate
